# Experimental data taken from patent publication US12019075B2, “Zwitterionic nanoparticles” (FRAUNHOFER-GESELLSCHAFT ZUR FOERDERUNG DER ANGEWANDTEN …, priority 2017, dated 2024).
# System: A549 cells
# Assay: Toxicity test with Cellomics Array Scan
# Type: cell-based, human
# Protocol: The toxicity of the zwitterionic QDQRs-17a and QDQRs-17b was tested using the Cellomics Array Scan. For the toxicity tests, A549 cells were plated on a 96-well plate and incubated with QDQR solutions in a concentration range of 25 to 500 nM. Cadmium chloride, which was used in a concentration range from 25 to 1,000 μM, was used as the positive control. The increase in the cadmium chloride concentration by a factor of 1,000 is due to the fact that a single QDQR of the tested samples contains about 8,200 cadmium atoms. Assuming that the totality of the nanoparticles dissolve and release the cadmium contained in them, the lowest concentration of 25 nM QDQRs used would correspond to a concentration of 205 μM cadmium chloride. After an incubation period of 16 hours, the cells were blended with a staining solution consisting of the cell nucleus dye Hoechst 33342 and the mitochondrial dye MitoTracker® Deep Red FM and then fixed with formaldehyde solution. The 96-well plates were then read out with the Cellomics Array Scan. A software was used to automatically determine the parameters number of cells, cell nucleus intensity and cell nucleus size using the intensity of the dye by Hoechst, and the transmembrane potential of the mitochondria on the basis of the mitochondrial dye. In addition, microscopic images of the cells were taken to control the number of cells and cell morphology.
# For the toxicity tests, A549 cells were plated in culture medium on a 96-well plate (10,000 cells per well) and incubated overnight. When the medium had been sucked off, the samples to be tested (diluted with culture medium, 100 μL per well) were applied in different concentrations and incubated for 16 hours. The samples were then removed and the cells were mixed with 100 μL staining solution (final concentration: 75 nM MitoTracker® Deep Red and […] Hoechst 33342 in DMEM with 10% FCS) and incubated for a further 30 minutes. […] After 20 minutes, the fixing solution was sucked off and washed twice with DPBS before the samples were measured on the Cellomics Array Scan.
compound,measurement,setting,value
[Cl][Cd][Cl] [cadmium chloride],morphological changes of the cells or cell nuclei (microscopic images),16 hours incubation,the number of cells decreases noticeably and they get globular
same,concentration with toxic effect on the cells,"16 hours incubation, tested 25 to 1,000 μM",≥ 100 µM
same,"number of cells per well, cell nucleus intensity and cell nucleus size","16 hours, 100 μM or more",decreases significantly
